Measurements taken from paper PMC8024735, “Low Z‐4OHtam concentrations are associated with adverse clinical outcome among early stage premenopausal breast cancer patients treated with adjuvant tamoxifen” (Molecular Oncology, 2020).
Several values for one entry are separate records, joined by “and”; a condition that tells them apart may be missing. Identical values can stand only once.

Tests used:
[1] = Quantification of tamoxifen and seven metabolites in bone marrow plasma by LC-MS/MS; settings: for Mean concentration / Median concentration: bone marrow plasma, N = 406, ~ 8 months from tamoxifen initiation
Protocol: During the isolation of mononuclear cells, BM samples were diluted 1 : 2 in PBS and centrifuged 10 min at 1000 g. After centrifugation, 3 × 1 mL samples of BM plasma was removed and stored at −40 °C and later transferred to −80 °C.
Tamoxifen and seven metabolites (Table 2) were quantified in human BM plasma samples collected ~ 8 months from tamoxifen initiation using our previously described method for serum [17]. In brief, protein precipitation (20 μL) of BM plasma was performed in acetonitrile containing deuterated internal standards. The supernatant (80 μL) was evaporated to dryness using nitrogen and subsequently reconstituted in 500 μL water : methanol (20 : 80, v:v). Subsequently, the samples were chromatographically separated on a Waters Acquity UPLC system (Milford, MA, USA) using a Waters BEH Phenyl column (100 mm × 2.1 mm, 1.7 μm particle size). The column was developed by a gradient elution of 0.01% aqueous solution of formic acid and methanol as weak and strong mobile phases, respectively. The compounds were subjected to atmospheric pressure photoionization and detected in positive ion mode using a Xevo TQ‐S tandem mass spectrometer (Waters, Taunton, MA, USA). All measured concentrations were multiplied by 3 to account for the dilution factor caused by adding 2 volumes of PBS during the isolation of mononuclear cells.

ER = settings: fold higher than tamoxifen; cited from earlier work
ER‐positive BC = test system: ER‐positive BC; design: method as in PMID 15894097; settings: patients using tamoxifen; cited from earlier work
[2] = design: method as in printed; settings: has been reported, ref not given; cited from earlier work
breast cancer patients = test system: breast cancer patients; design: method as in PMID 29183390; settings: thresholds Z-4OHtam 3.26 nM, Z-endoxifen 9 nM, learning set; cited from earlier work
[3] = test system: estrogen receptor‐positive breast cancer (BC) patients; assay: Breast cancer-specific survival (BCSS) according to active metabolite thresholds, Kaplan-Meier and Cox regression; type: in vivo, human
Source text: Patients included in this retrospective analysis were selected from subjects on a prospective trial investigating the value of Secondary Adjuvant (rescue) Treatment with docetaxel (Taxotere) [SATT (Secondary Adjuvant Treatment with Taxotere) study] for BC patients with disseminated tumor cells in their bone marrow (BM). […] Inclusion criteria were completion of primary surgery, completion of six cycles of anthracycline (AC)‐containing chemotherapy, and node‐positive or pT1c‐T4G2‐3 node‐negative BC with no earlier or other concomitant carcinoma.
Thus, they reflect patients treated with endocrine treatment outside studies, according to national guidelines.
Selection of patients younger than 45 years ensured that the patients received tamoxifen as a monotherapy for 5 years according to guidelines at the time of inclusion. […] Patients with plasma tamoxifen concentrations of < 40 nM were considered to be nonadherent to tamoxifen and excluded from both subgroups. As molecular subtyping was not available, the relevance of luminal subgroup status on active metabolite thresholds was investigated by creation of a Luminal B‐like subgroup based on tumor pathological surrogate markers available. […] All other patients were grouped as Luminal A [29, 30].
Survival analyses included Kaplan–Meier and Cox regression analyses in which breast cancer‐specific survival (BCSS), defined as time from inclusion to death by BC, was used as the main outcome variable. The log‐rank test was applied to test for statistical difference in survival between groups. […] First, we fitted univariable Cox models. Next, in multivariable Cox regression models we included both clinically relevant variables and variables with a P‐value ≤ 0.2 from the univariable analysis. […] Distribution of metabolite concentrations and clinical variables was calculated and presented as means, medians, and frequencies. Interpatient variability in tamoxifen concentrations was calculated as coefficients of variation. Ratios between Z‐endoxifen and Z‐4OHtam were calculated by dividing the two metabolite concentrations and reported as means with range. All statistical analyses were conducted using IBM ® SPSS ® Statistics version 25 (SPSS, Inc., Chicago, IL, USA). Two‐tailed P‐values < 0.05 were considered statistically significant.

[4] = all analyzed patients (n = 406)

CC/C(=C(\c1ccccc1)c1ccc(OCCN(C)C)cc1)c1ccc(O)cc1 [Z‐4'‐OHtam]
Mean concentration [1]: 6.9 nM
Median concentration [1]: 6.6 nM

CC/C(=C(\c1ccc(O)cc1)c1ccc(OCCN(C)C)cc1)c1ccccc1 [Z‐4OHtam, Z‐4‐hydroxy‐tamoxifen]
Affinity to the ER compared with tamoxifen (ER): 100 × and ~ 100 ×

CC/C(=C(\c1ccccc1)c1ccc(OCC[N+](C)(C)[O-])cc1)c1ccccc1 [TamNoX]
Mean concentration [1]: 49.9 nM
Median concentration [1]: 43.1 nM

CC/C(=C(\c1ccccc1)c1ccc(OCCN)cc1)c1ccccc1 [NNDDtam, N,N‐di‐desmethyl tamoxifen]
Mean concentration [1]: 94.7 nM

CCC(=C(c1ccccc1)c1ccc(OCCNC)cc1)c1ccc(O)cc1 [Z‐4'‐endoxifen]
Mean concentration [1]: 20.8 nM
Median concentration [1]: 19.6 nM

CC/C(=C(\c1ccccc1)c1ccc(OCCN(C)C)cc1)c1ccccc1 [Tam, tamoxifen]
Mean concentration [1]: 365.9 nM
Median concentration [1]: 341.2 nM
Patients experiencing a relapse within 10 years (ER‐positive BC): ~ 25%

CC/C(=C(\c1ccccc1)c1ccc(OCCNC)cc1)c1ccccc1 [NDtam]
Mean concentration [1]: 694.9 nM
Median concentration [1]: 655.8 nM

CC/C(=C(\c1ccc(O)cc1)c1ccc(OCCNC)cc1)c1ccccc1 [Z‐endoxifen, 4‐hydroxy‐N‐desmethyl tamoxifen]
Abundance in serum compared with Z-4OHtam [2]: up to 10 times
Median ratio between Z-endoxifen and Z-4OHtam concentrations ([1]; 'tamoxifen-only' subgroup): 5.6
Range of ratio between Z-endoxifen and Z-4OHtam concentrations ([1]; 'tamoxifen-only' subgroup): 1.9–14.9
Median ratio between Z-endoxifen and Z-4OHtam concentrations [1, 4]: 5.7
Range of ratio between Z-endoxifen and Z-4OHtam concentrations [1, 4]: 1.2–14.9
Mean concentration [1]: 28.7 nM
Median concentration [1]: 26.6 nM
Hazard ratio (HR) of threshold in prior report (breast cancer patients): 3.73
Affinity to the ER compared with tamoxifen (ER): 100 × and ~ 100 ×
Association of ordinal categories (low, moderate, high concentration) with BCSS ([3]; 'tamoxifen-only' subgroup): No significant associations
Association of threshold with BCSS ([3]; 'tamoxifen-only' subgroup, uni-/multivariable): No uni‐/multivariable associations
HR for BCSS ([3]; Z-endoxifen 9.00 nM threshold, all patients n = 406): 0.63 (0.15-2.60)
HR (95% CI) for BCSS, univariable ([3]; Z-endoxifen ≤ 9 nM vs > 9 nM, 'tamoxifen-only' subgroup n = 191): 0.98 (0.23–4.15)
Association of concentrations below thresholds with BCSS ([3]; all 406 patients, thresholds 9 nM Z-endoxifen, 3.26 nM Z-4OHtam): not associated with BCSS
Predictive value of thresholds in Luminal A / Luminal B-like subgroups ([3]; post hoc analysis, thresholds 3.26 and 9 nM): not predictive of survival in either subgroup
